Residues, ends and D or L forms follow the SMILES beside them. No end group written: not given here.
Legend:
[1] = Maximal solubility of the synthetic peptides in water and in DMSO (sheet Peptide_mixes); type: physicochemical; conditions: for max solve (DMSO): in DMSO, number in brackets in the cell; for max solve water: in water, number before the bracket in the cell
Excerpt: Supplement elife-90674-supp3.xlsx, sheet "Peptide_mixes"

[2] = test system: QITRFa.R196 (R196, GPR196); assay: GPCR deorphanization dose-response assay (HEK293, G5A luminescence); type: cell-based, Nematostella vectensis; conditions: drc fit
Protocol: (§1) To experimentally identify Nematostella neuropeptide GPCRs, we tested our selection of 161 N. vectensis GPCRs in a pharmacological assay for activation by peptides from our peptide library (Figure 3A, Supplementary files 3 and 8). We expressed the candidate GPCRs in mammalian cells, together with a promiscuous Gqi protein and a luminescent G5A reporter (Figure 3A, Supplementary file 7). The peptides were separated into different mixes (Supplementary file 3), which were then tested on each GPCR (Supplementary file 4). Receptor-mix combinations that gave a positive signal were further resolved by testing the individual peptides of the mix to identify the activating ligand (Supplementary file 4). […]
(§2) A detailed step-by-step protocol has been published in [Thiel et al., 2023]. […] For each well, 10 µl OptiMEM (without FBS), 70 ng of GPCR containing plasmid, 70 ng of Gqi5/9 plasmid, 10–20 ng of G5A plasmid (to increase luminescence values of our HEK293 cell line), and 0.45–0.48 µl T5000/PEI were mixed and incubated for 20 min at room temperature. […] Readings were performed with a FlexStation 3 Multi-mode Microplate reader (Molecular Devices), for a period of 60 s per well, ligand injection after 15–18 s, and the whole plate was read with the Flex option. […] The readout data for the final dose-response curves is provided in Supplementary file 9 and as .csv files in the repository in the data folder. […]

QGRFa.R070 (R70, GPR70) = assay: as above; type: cell-based, Nematostella vectensis; conditions: drc fit
Protocol: as §1, §2

What does the source list for C[C@@H](O)[C@H](NC(=O)[C@H](Cc1c[nH]cn1)NC(=O)[C@H](Cc1ccccc1)NC(=O)[C@H](Cc1ccc(O)cc1)NC(=O)[C@@H]1CCCN1C(=O)[C@@H]1CCC(=O)N1)C(=O)N[C@@H](CC(=O)O)C(=O)N[C@@H](CC(N)=O)C(=O)N[C@@H](CO)C(=O)N1CCC[C@H]1C(=O)N[C@@H](CC(N)=O)C(=O)N[C@@H](CCCNC(=N)N)C(=O)N[C@@H](Cc1ccccc1)C(N)=O [NRFa] (HELM PEPTIDE1{[Glp].P.Y.F.H.T.D.N.S.P.N.R.F.[am]}$$$$V2.0)?
max solve (DMSO) [1]: 5 (5) mg/ml; max solve water [1]: 5 (5) mg/ml

What does the source list for SPKPPGLW-NH2 [GLWa5]?
max solve (DMSO) [1]: 10 (10) mg/ml; max solve water [1]: 10 (10) mg/ml

What does the source list for CC(C)[C@H](NC(=O)[C@H](CCCNC(=N)N)NC(=O)[C@H](Cc1ccc(O)cc1)NC(=O)[C@@H](N)Cc1ccccc1)C(N)=O [FYRVa] (H-FYRV-NH2)?
max solve (DMSO) [1]: 10 mg/mL; max solve water [1]: 2 mg/mL

Which “max solve (DMSO)” value [1] does the source give for CC(C)C[C@H](NC(=O)[C@@H](N)Cc1ccccc1)C(=O)N[C@@H](CCCNC(=N)N)C(=O)N[C@@H](CC(N)=O)C(N)=O [FLRNa] (H-FLRN-NH2) here?
Its value is 10 (10) mg/ml.

And the max solve water [1]?
Its max solve water is 10 (10) mg/ml.

With C[C@H](NC(=O)[C@H](CCCCN)NC(=O)[C@H](Cc1ccccc1)NC(=O)[C@@H](N)Cc1ccccc1)C(N)=O [FFKAa] (H-FFKA-NH2) as the molecule, how does the “max solve (DMSO)” value [1] read?
Its value is 10 (10) mg/ml.

And the max solve water [1]?
The max solve water was 10 (10) mg/ml.

With APRGGRSLLDLLAAPRG-NH2 [PRGa1] as the molecule, how does the “max solve (DMSO)” value [1] read?
The value was 10 (10) mg/ml.

And the max solve water [1]?
The max solve water was 10 (10) mg/ml.

Which results are given for GPRGGRSYDGPRG-NH2 [PRGa4]?
max solve (DMSO) [1]: 10 mg/mL; max solve water [1]: 5 mg/mL

What does the source list for CSCC[C@H](NC(=O)[C@H](CC(N)=O)NC(=O)[C@@H]1CCCN1C(=O)[C@H](CCSC)NC(=O)[C@@H]1CCC(=O)N1)C(=O)N[C@H](C(=O)N1CCC[C@H]1C(=O)N[C@@H](Cc1ccccc1)C(=O)N[C@@H](Cc1c[nH]cn1)C(N)=O)C(C)C [PFHa] (HELM PEPTIDE1{[Glp].M.P.N.M.V.P.F.H.[am]}$$$$V2.0)?
max solve (DMSO) [1]: 10 mg/mL; max solve water [1]: 0 mg/mL

With NPPQPPFRIPI-NH2 [IPIa] as the molecule, how does the “max solve (DMSO)” value [1] read?
Its value is 10 mg/mL.

What about the max solve water [1] of the same molecule?
Its max solve water is 5 mg/mL.

For CC(C)C[C@H](NC(=O)CNC(=O)[C@@H]1CCCN1C(=O)[C@@H]1CCCN1C(=O)CNC(=O)[C@H](C)NC(=O)[C@@H]1CCC(=O)N1)C(=O)N[C@@H](Cc1c[nH]c2ccccc12)C(N)=O [GLWa2] (HELM PEPTIDE1{[Glp].A.G.P.P.G.L.W.[am]}$$$$V2.0), which “max solve (DMSO)” value [1] is on record?
The value was 10 (10) mg/ml.

And the max solve water [1]?
Its max solve water is 10 (10) mg/ml.

Which “max solve (DMSO)” value [1] does the source give for CSCC[C@H](NC(=O)[C@H](CC(C)C)NC(=O)CNC(=O)[C@@H]1CCC(=O)N1)C(=O)N[C@@H](Cc1ccccc1)C(=O)N[C@@H](CCCNC(=N)N)C(=O)N1CCC[C@H]1C(N)=O [FRPa2] (HELM PEPTIDE1{[Glp].G.L.M.F.R.P.[am]}$$$$V2.0) here?
Its value is 10 mg/mL.

And the max solve water [1]?
The max solve water was 5 mg/mL.

What does the source list for CC(C)C[C@H](NC(=O)[C@H](Cc1ccc(O)cc1)NC(=O)[C@@H]1CCC(=O)N1)C(=O)N[C@@H](CC(=O)O)C(=O)N1CCC[C@H]1C(=O)N[C@@H](CCCNC(=N)N)C(=O)N1CCC[C@H]1C(N)=O [RHa5] (HELM PEPTIDE1{[Glp].Y.L.D.P.R.P.[am]}$$$$V2.0)?
max solve (DMSO) [1]: 15 mg/mL; max solve water [1]: 10 mg/mL

For CC(C)C[C@H](NC(=O)CNC(=O)[C@@H]1CCCN1C(=O)[C@H](C)NC(=O)CNC(=O)[C@H](C)NC(=O)[C@@H]1CCC(=O)N1)C(=O)N[C@@H](Cc1c[nH]c2ccccc12)C(N)=O [GLWa1] (HELM PEPTIDE1{[Glp].A.G.A.P.G.L.W.[am]}$$$$V2.0), which “max solve (DMSO)” value [1] is on record?
Its value is 10 mg/mL.

And the max solve water [1]?
Its max solve water is 5 mg/mL.

With CC[C@H](C)[C@H](NC(=O)[C@H](Cc1c[nH]cn1)NC(=O)[C@H](Cc1ccccc1)NC(=O)[C@H](Cc1ccc(O)cc1)NC(=O)[C@H](C)NC(=O)[C@@H]1CCCN1C(=O)[C@@H](NC(=O)[C@H](CC(C)C)NC(=O)[C@H](CC(=O)O)NC(=O)[C@H](CC(C)C)NC(=O)[C@H](Cc1ccc(O)cc1)NC(=O)[C@@H]1CCCN1C(=O)[C@@H]1CCCN1C(=O)[C@@H]1CCC(=O)N1)[C@@H](C)O)C(=O)N[C@@H](CCCNC(=N)N)C(N)=O [HIRa3] (HELM PEPTIDE1{[Glp].P.P.Y.L.D.L.T.P.A.Y.F.H.I.R.[am]}$$$$V2.0) as the molecule, how does the “max solve (DMSO)” value [1] read?
Its value is 10 mg/mL.

What about the max solve water [1] of the same molecule?
The max solve water was 5 mg/mL.

For CC(C)C[C@H](NC(=O)[C@H](Cc1c[nH]cn1)NC(=O)[C@H](CO)NC(=O)[C@H](CC(C)C)NC(=O)[C@@H]1CCCN1C(=O)[C@@H]1CCCN1C(=O)[C@@H]1CCC(=O)N1)C(=O)N[C@@H](CO)C(N)=O [HLSa] (HELM PEPTIDE1{[Glp].P.P.L.S.H.L.S.[am]}$$$$V2.0), which “max solve (DMSO)” value [1] is on record?
The value was 5 mg/mL.

And the max solve water [1]?
The max solve water was 0 mg/mL.

With LPPRFGGQI-NH2 [QIa] as the molecule, how does the “max solve (DMSO)” value [1] read?
Its value is 10 mg/mL.

And the max solve water [1]?
The max solve water was 5 mg/mL.

For DSSPPQW [QW2], which “max solve (DMSO)” value [1] is on record?
Its value is 10 mg/mL.

And the max solve water [1]?
Its max solve water is 5 mg/mL.

What does the source list for SPWSYSLRP-NH2 [LRPa2]?
max solve (DMSO) [1]: 10 (10) mg/ml; max solve water [1]: 10 (10) mg/ml

With CC(C)C[C@H](NC(=O)[C@H](CCCNC(=N)N)NC(=O)[C@@H](NC(=O)[C@H](CC(N)=O)NC(=O)[C@H](C)NC(=O)[C@H](CCCCN)NC(=O)[C@H](CS)NC(=O)[C@H](CC(C)C)NC(=O)[C@H](Cc1c[nH]c2ccccc12)NC(=O)[C@H](CC(C)C)NC(=O)CNC(=O)[C@@H]1CCCN1C(=O)[C@@H]1CCCN1C(=O)[C@H](CS)NC(=O)[C@H](Cc1c[nH]cn1)NC(=O)CNC(=O)[C@H](CC(N)=O)NC(=O)[C@@H]1CCC(=O)N1)[C@@H](C)O)C(=O)O [GLWL] (HELM PEPTIDE1{[Glp].N.G.H.C.P.P.G.L.W.L.C.K.A.N.T.R.L}$$$$V2.0) as the molecule, how does the “max solve (DMSO)” value [1] read?
Its value is 10 mg/mL.

What about the max solve water [1] of the same molecule?
Its max solve water is 5 mg/mL.

Which results are given for CC(C)C[C@H](NC(=O)[C@H](CO)NC(=O)[C@H](C)NC(=O)[C@@H](NC(=O)[C@H](CC(=O)O)NC(=O)[C@H](CC(N)=O)NC(=O)[C@H](CCC(=O)O)NC(=O)[C@H](CO)NC(=O)[C@@H](NC(=O)[C@H](CCC(=O)O)NC(=O)[C@H](CO)NC(=O)[C@@H](NC(=O)[C@H](CO)NC(=O)[C@@H]1CCCN1C(=O)[C@H](CC(C)C)NC(=O)[C@@H]1CCC(=O)N1)C(C)C)C(C)C)C(C)C)C(=O)N[C@@H](CC(C)C)C(=O)N[C@@H](CCCNC(=N)N)C(=O)N[C@@H](CCC(=O)O)C(=O)O [LRE] (HELM PEPTIDE1{[Glp].L.P.S.V.S.E.V.S.E.N.D.V.A.S.L.L.R.E}$$$$V2.0)?
max solve (DMSO) [1]: 5 mg/mL; max solve water [1]: 0 mg/mL

With CC[C@H](C)[C@H](NC(=O)[C@H](Cc1c[nH]cn1)NC(=O)[C@H](Cc1ccccc1)NC(=O)[C@H](Cc1ccc(O)cc1)NC(=O)[C@H](C)NC(=O)[C@@H]1CCCN1C(=O)CNC(=O)[C@H](CC(C)C)NC(=O)[C@H](CC(=O)O)NC(=O)[C@H](CC(C)C)NC(=O)[C@@H]1CCCN1C(=O)[C@@H]1CCCN1C(=O)[C@@H]1CCC(=O)N1)C(=O)N[C@@H](CCCNC(=N)N)C(N)=O [HIRa4] (HELM PEPTIDE1{[Glp].P.P.L.D.L.G.P.A.Y.F.H.I.R.[am]}$$$$V2.0) as the molecule, how does the “max solve (DMSO)” value [1] read?
Its value is 10 mg/mL.

What about the max solve water [1] of the same molecule?
Its max solve water is 5 mg/mL.

For “pyrQITRFamide [synthetic N. vectensis RFamide neuropeptide pyrQITRFamide]”, which “Slope of the dose-response curve” value [2] is on record?
The value was -0.6635.

And the “Slope of the dose-response curve” value (QGRFa.R070 (R70, GPR70))?
The value was -1.343.

Which “max solve (DMSO)” value [1] does the source give for CC(C)C[C@H](NC(=O)CNC(=O)[C@@H]1CCC(=O)N1)C(=O)N[C@@H](CCCNC(=N)N)C(=O)N[C@@H](Cc1c[nH]c2ccccc12)C(N)=O [LRWa1] (HELM PEPTIDE1{[Glp].G.L.R.W.[am]}$$$$V2.0) here?
The value was 5 mg/mL.

And the max solve water [1]?
The max solve water was 0 mg/mL.

From paper PMC11087051, “Large-scale deorphanization of Nematostella vectensis neuropeptide G protein-coupled receptors supports the independent expansion of bilaterian and cnidarian peptidergic systems” (eLife, 2024)
